Each structure is given as a SMILES string. pIC50: −log10 of the molar value.

For this assay, the target named is DNA-directed RNA polymerase subunit alpha/beta/beta'/omega (Escherichia coli (strain K12), UniProt P0A7Z4+P0A800+P0A8T7+P0A8V2). Kind of assay: Inhibition of Escherichia coli DNA-dependent RNA polymerase.
Chain of DNA-directed RNA polymerase subunit alpha/beta/beta'/omega (P0A8V2 whole entry): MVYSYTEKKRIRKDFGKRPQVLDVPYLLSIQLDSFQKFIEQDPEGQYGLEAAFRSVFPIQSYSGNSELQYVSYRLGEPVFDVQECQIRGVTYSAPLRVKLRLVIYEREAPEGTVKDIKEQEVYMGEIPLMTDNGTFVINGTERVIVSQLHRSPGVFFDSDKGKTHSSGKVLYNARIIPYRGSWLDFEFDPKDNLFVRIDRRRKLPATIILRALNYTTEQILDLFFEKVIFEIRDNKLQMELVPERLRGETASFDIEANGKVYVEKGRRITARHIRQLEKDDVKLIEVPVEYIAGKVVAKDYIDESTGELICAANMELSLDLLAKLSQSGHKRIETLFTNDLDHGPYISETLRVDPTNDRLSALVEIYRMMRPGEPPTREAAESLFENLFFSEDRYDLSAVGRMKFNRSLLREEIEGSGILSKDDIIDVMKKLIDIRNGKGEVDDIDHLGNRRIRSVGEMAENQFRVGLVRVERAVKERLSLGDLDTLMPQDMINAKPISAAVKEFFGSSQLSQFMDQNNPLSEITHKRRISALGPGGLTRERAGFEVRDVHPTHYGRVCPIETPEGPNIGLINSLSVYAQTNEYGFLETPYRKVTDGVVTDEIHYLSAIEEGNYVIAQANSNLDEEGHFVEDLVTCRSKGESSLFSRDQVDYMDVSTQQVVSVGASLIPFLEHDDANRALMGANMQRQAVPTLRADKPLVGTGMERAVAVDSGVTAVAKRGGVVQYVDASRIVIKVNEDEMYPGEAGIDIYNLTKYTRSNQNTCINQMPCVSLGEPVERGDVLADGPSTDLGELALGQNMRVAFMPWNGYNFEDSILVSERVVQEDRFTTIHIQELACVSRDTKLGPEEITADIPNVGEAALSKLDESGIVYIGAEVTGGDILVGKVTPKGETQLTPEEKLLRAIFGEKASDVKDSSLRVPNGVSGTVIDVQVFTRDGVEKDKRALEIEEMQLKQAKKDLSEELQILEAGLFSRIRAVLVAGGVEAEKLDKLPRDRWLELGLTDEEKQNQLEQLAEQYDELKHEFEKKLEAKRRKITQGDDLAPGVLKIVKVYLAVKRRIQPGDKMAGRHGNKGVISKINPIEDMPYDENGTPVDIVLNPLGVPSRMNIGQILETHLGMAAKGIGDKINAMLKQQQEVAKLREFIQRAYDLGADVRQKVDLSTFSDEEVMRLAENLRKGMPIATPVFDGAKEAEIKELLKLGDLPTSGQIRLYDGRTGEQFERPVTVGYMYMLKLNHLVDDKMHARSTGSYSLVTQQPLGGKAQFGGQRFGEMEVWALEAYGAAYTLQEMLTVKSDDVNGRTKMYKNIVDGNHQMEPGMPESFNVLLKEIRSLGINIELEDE
Chain of DNA-directed RNA polymerase subunit alpha/beta/beta'/omega (P0A7Z4 whole entry): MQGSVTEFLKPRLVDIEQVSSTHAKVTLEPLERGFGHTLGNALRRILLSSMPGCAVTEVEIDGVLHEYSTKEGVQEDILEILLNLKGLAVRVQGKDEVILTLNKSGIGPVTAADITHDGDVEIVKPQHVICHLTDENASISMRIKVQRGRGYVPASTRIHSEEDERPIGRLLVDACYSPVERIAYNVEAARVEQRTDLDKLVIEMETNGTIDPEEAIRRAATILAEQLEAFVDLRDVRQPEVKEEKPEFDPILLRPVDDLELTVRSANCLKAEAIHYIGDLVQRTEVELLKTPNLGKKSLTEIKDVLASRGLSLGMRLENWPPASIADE
Chain of DNA-directed RNA polymerase subunit alpha/beta/beta'/omega (P0A8T7 whole entry): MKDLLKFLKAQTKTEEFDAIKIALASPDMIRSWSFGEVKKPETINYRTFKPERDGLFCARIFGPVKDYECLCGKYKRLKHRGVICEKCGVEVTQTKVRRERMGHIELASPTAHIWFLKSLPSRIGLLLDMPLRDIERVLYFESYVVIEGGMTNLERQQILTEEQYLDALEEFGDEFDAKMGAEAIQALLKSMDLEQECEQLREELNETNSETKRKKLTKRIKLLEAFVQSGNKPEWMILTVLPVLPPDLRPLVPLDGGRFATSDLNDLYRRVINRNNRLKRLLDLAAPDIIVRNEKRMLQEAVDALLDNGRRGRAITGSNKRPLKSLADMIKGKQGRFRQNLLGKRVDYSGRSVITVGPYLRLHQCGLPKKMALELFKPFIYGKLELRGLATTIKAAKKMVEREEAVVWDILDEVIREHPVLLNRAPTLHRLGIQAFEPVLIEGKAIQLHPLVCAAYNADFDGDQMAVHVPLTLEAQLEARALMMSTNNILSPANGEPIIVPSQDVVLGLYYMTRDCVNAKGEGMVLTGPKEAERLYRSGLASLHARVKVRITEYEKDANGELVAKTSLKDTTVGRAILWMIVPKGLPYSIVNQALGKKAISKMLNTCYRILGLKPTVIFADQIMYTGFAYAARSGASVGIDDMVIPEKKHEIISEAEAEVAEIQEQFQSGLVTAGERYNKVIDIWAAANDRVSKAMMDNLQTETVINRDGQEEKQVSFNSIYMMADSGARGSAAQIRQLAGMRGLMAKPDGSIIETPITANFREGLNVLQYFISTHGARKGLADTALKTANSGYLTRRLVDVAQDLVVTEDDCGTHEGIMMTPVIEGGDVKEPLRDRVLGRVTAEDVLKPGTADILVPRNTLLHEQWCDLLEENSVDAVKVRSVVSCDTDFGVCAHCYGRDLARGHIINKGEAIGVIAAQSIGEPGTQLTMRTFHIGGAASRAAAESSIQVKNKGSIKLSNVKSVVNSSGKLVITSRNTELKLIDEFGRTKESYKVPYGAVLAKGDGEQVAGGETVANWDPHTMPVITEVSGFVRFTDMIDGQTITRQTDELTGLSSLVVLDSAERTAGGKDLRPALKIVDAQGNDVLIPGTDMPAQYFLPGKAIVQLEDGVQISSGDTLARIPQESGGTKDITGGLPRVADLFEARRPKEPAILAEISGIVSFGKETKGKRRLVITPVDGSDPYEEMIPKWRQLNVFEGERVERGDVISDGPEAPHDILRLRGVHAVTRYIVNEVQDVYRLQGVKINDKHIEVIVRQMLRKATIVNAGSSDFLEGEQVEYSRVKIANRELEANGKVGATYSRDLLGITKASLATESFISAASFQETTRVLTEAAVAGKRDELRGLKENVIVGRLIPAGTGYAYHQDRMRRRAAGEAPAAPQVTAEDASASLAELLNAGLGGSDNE
Chain of DNA-directed RNA polymerase subunit alpha/beta/beta'/omega (P0A800 whole entry): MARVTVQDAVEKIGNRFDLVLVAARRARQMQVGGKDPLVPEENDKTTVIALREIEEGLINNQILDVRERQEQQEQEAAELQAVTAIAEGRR

By pIC50 is commonly meant the negative decadic logarithm of the IC50, by convention in mol/L. High values mean a small IC50, low ones a large IC50. Consider `Cc1c2oc3c(C)ccc(C(=O)N[C@@H]4C(=O)N[C@H](C(C)C)C(=O)N5CCC[C@H]5C(=O)N(C)CC(=O)N(C)[C@@H](C(C)C)C(=O)O[C@@H]4C)c3nc-2c(C(=O)N[C@@H]2C(=O)N[C@H](C(C)C)C(=O)N3CCC[C@H]3C(=O)N(C)CC(=O)N(C)[C@@H](C(C)C)C(=O)O[C@@H]2C)c(NC2CC(C)(C)[N+]([O-])C(C)(C)C2)c1=O`, for which the pIC50 is 5.55.

These data come from BindingDB's records for doi:10.1021/jm00195a008 (1979).
